Laboratory results published in patent US6376426B1, “Herbicidal 3-(heterocycl-1-yl)-uracils” (BASF Aktiengesellschaft, priority 1999, dated 2002).

Columns and labels:
Format in all cases: in vivo
Zea mays [1] = assay: Pre-emergence herbicidal test, ZEAMX; design: key to herbicidal effect (0-9 scale) ZEAMX / herbicidal rating ZEAMX: A rating 0 indicates growth as untreated control; a rating 9 indicates death; conditions: PRE, 21 days after spraying
Procedure: (§1) To evaluate their herbicidal activity, compounds according to the invention are tested using a representative range of plants:
(§2) The pre-emergence tests involve spraying a liquid formulation of the compound onto the soil in which the seeds of the plant species mentioned above has recently been sown.
(§3) The soil used in the tests is a prepared horticultural loam. The formulations used in the tests are prepared from solutions of the test compounds in acetone containing 0.4% by weight of an alkylphenol/ethylene oxide condensate available under the trade mark TRITON X-155. […] In these tests untreated sown soil are used as controls.
(§4) The herbicidal effects of the test compounds are assessed visually twenty-one days after spraying the foliage and the soil and are recorded on a 0-9 scale. A rating 0 indicates growth as untreated control, a rating 9 indicates death. An increase of 1 unit on the linear scale approximates to a 10% increase in the level of effect.

Galium aparine [2] = assay: Pre-emergence herbicidal test, GALAP; design: key to herbicidal effect (0-9 scale) GALAP / herbicidal rating GALAP: A rating 0 indicates growth as untreated control; a rating 9 indicates death; conditions: PRE, 21 days after spraying
Procedure: as §1, §2, §3, §4

Triticum aestivum [3] = assay: Pre-emergence herbicidal test, TRZAW; design: key: A rating 0 indicates growth as untreated control; a rating 9 indicates death; conditions: 21 days after spraying
Procedure: as §1, §2, §3, §4

Galium aparine [4] = assay: Post-emergence herbicidal test, GALAP; design: key to herbicidal effect (0-9 scale) GALAP / herbicidal rating GALAP: A rating 0 indicates growth as untreated control; a rating 9 indicates death; conditions: POST, 21 days after spraying
Procedure: as §1
(§5) […] After spraying, the plants are placed on greenhouse benches and are cared for in the usual manner, commensurate with conventional greenhouse practices.
as §4

Setaria viridis [5] = assay: Post-emergence herbicidal test, SETVI; design: key to herbicidal effect (0-9 scale) SETVI / herbicidal rating SETVI: A rating 0 indicates growth as untreated control; a rating 9 indicates death; conditions: POST, 21 days after spraying
Procedure: as §1, §5, §4

Hordeum vulgare [6] = assay: Post-emergence herbicidal test, HORVW; conditions: 21 days after spraying
Procedure: as §1
These acetone solutions are diluted with water and the resulting formulations applied at dosage levels equivalent to about 1000, 800, 400, 250 or 100 g/ha per hectare of test compound per pot. After spraying, the plants are placed on greenhouse benches and are cared for in the usual manner, commensurate with conventional greenhouse practices.
as §4

Matricaria inodora [7] = assay: Post-emergence herbicidal test, MATIN; design: key to herbicidal effect (0-9 scale) MATIN / herbicidal rating MATIN: A rating 0 indicates growth as untreated control; a rating 9 indicates death; conditions: POST, 21 days after spraying
Procedure: as §1, §5, §4

Abutilon theophrasti [8] = assay: Pre-emergence herbicidal test, ABUTH; design: key to herbicidal effect (0-9 scale) ABUTH / herbicidal rating ABUTH: A rating 0 indicates growth as untreated control; a rating 9 indicates death; conditions: PRE, 21 days after spraying
Procedure: as §1, §2, §3, §4

Hordeum vulgare [9] = assay: Pre-emergence herbicidal test, HORVW; design: key: A rating 0 indicates growth as untreated control; a rating 9 indicates death; conditions: 21 days after spraying
Procedure: as §1, §2, §3, §4

Ipomoea hederacea [10] = assay: Pre-emergence herbicidal test, IPOHE; design: key: A rating 0 indicates growth as untreated control; a rating 9 indicates death; conditions: 21 days after spraying
Procedure: as §1, §2, §3, §4

Glycine max [11] = assay: Post-emergence herbicidal test, GLXMA; design: key: A rating 0 indicates growth as untreated control; a rating 9 indicates death; conditions: 21 days after spraying
Procedure: as §1, §5, §4

Echinochloa crus-galli [12] = assay: Pre-emergence herbicidal test, ECHCG; design: key: A rating 0 indicates growth as untreated control; a rating 9 indicates death; conditions: 21 days after spraying
Procedure: as §1, §2, §3, §4

Setaria viridis [13] = assay: Pre-emergence herbicidal test, SETVI; design: key to herbicidal effect (0-9 scale) SETVI / herbicidal rating SETVI: A rating 0 indicates growth as untreated control; a rating 9 indicates death; conditions: PRE, 21 days after spraying
Procedure: as §1, §2, §3, §4

Ipomoea hederacea [14] = assay: Post-emergence herbicidal test, IPOHE; design: key to herbicidal effect (0-9 scale) IPOHE / herbicidal rating IPOHE: A rating 0 indicates growth as untreated control; a rating 9 indicates death; conditions: POST, 21 days after spraying
Procedure: as §1, §5, §4

Alopecurus myosuroides [15] = assay: Post-emergence herbicidal test, ALOMY; design: key: A rating 0 indicates growth as untreated control; a rating 9 indicates death; conditions: 21 days after spraying
Procedure: as §1, §5, §4

Triticum aestivum [16] = assay: Post-emergence herbicidal test, TRZAW; conditions: POST, 21 days after spraying
Procedure: as §1, §5, §4

Echinochloa crus-galli [17] = assay: Post-emergence herbicidal test, ECHCG; design: key: A rating 0 indicates growth as untreated control; a rating 9 indicates death; conditions: 21 days after spraying
Procedure: as §1, §5, §4

Zea mays [18] = assay: Post-emergence herbicidal test, ZEAMX; design: key: A rating 0 indicates growth as untreated control; a rating 9 indicates death; conditions: 21 days after spraying
Procedure: as §1, §5, §4

Matricaria inodora [19] = assay: Pre-emergence herbicidal test, MATIN; design: key to herbicidal effect (0-9 scale) MATIN / herbicidal rating MATIN: A rating 0 indicates growth as untreated control; a rating 9 indicates death; conditions: PRE, 21 days after spraying
Procedure: as §1, §2, §3, §4

Glycine max [20] = assay: Pre-emergence herbicidal test, GLXMA; conditions: PRE, 21 days after spraying
Procedure: as §1, §2, §3, §4

Alopecurus myosuroides [21] = assay: Pre-emergence herbicidal test, ALOMY; design: key to herbicidal effect (0-9 scale) ALOMY / herbicidal rating ALOMY: A rating 0 indicates growth as untreated control; a rating 9 indicates death; conditions: PRE, 21 days after spraying
Procedure: as §1, §2, §3, §4

Stellaria media [22] = assay: Pre-emergence herbicidal test, STEME; design: key to herbicidal effect (0-9 scale) STEME / herbicidal rating STEME: A rating 0 indicates growth as untreated control; a rating 9 indicates death; conditions: PRE, 21 days after spraying
Procedure: as §1, §2, §3, §4

Stellaria media [23] = assay: Post-emergence herbicidal test, STEME; design: key to herbicidal effect (0-9 scale) STEME / herbicidal rating STEME: A rating 0 indicates growth as untreated control; a rating 9 indicates death; conditions: POST, 21 days after spraying
Procedure: as §1, §5, §4

Abutilon theophrasti [24] = assay: Post-emergence herbicidal test, ABUTH; design: key to herbicidal effect (0-9 scale) ABUTH / herbicidal rating ABUTH: A rating 0 indicates growth as untreated control; a rating 9 indicates death; conditions: POST, 21 days after spraying
Procedure: as §1, §5, §4

**Q.** Which results are given for `COc1ccc2ccn(-n3c(=O)cc(C(F)(F)F)n(C)c3=O)c2c1` [Example 1, 6-Methoxy-1-(3-methyl-4-trifluoromethylpyrimidin-2,6-dion-1-yl)-indole]?
**A.** herbicidal effect (0-9 scale) ZEAMX (Zea mays [1]; 250 g/ha): 8; herbicidal effect (0-9 scale) ZEAMX (Zea mays [1]; 1000 g/ha): 9; herbicidal effect (0-9 scale) GALAP (Galium aparine [2]; 250 g/ha): 9; herbicidal effect (0-9 scale) GALAP (Galium aparine [2]; 1000 g/ha): 9; herbicidal effect (0-9 scale) TRZAW (Triticum aestivum [3]; 250 g/ha): 8; herbicidal effect (0-9 scale) TRZAW (Triticum aestivum [3]; 1000 g/ha): 9; herbicidal effect (0-9 scale) GALAP (Galium aparine [4]; 250 g/ha): 9; herbicidal effect (0-9 scale) GALAP (Galium aparine [4]; 1000 g/ha): 9; herbicidal effect (0-9 scale) SETVI (Setaria viridis [5]; 250 g/ha): 9; herbicidal effect (0-9 scale) SETVI (Setaria viridis [5]; 1000 g/ha): 9; herbicidal effect (0-9 scale) HORVW (Hordeum vulgare [6]; 250 g/ha): 8; herbicidal effect (0-9 scale) HORVW (Hordeum vulgare [6]; 1000 g/ha): 8; herbicidal effect (0-9 scale) MATIN (Matricaria inodora [7]; 250 g/ha): 8; herbicidal effect (0-9 scale) MATIN (Matricaria inodora [7]; 1000 g/ha): 9; herbicidal effect (0-9 scale) ABUTH (Abutilon theophrasti [8]; 250 g/ha): 9; herbicidal effect (0-9 scale) ABUTH (Abutilon theophrasti [8]; 1000 g/ha): 9; herbicidal effect (0-9 scale) HORVW (Hordeum vulgare [9]; 250 g/ha): 7; herbicidal effect (0-9 scale) HORVW (Hordeum vulgare [9]; 1000 g/ha): 9; herbicidal effect (0-9 scale) IPOHE (Ipomoea hederacea [10]; 250 g/ha): 8; herbicidal effect (0-9 scale) IPOHE (Ipomoea hederacea [10]; 1000 g/ha): 9; herbicidal effect (0-9 scale) GLXMA (Glycine max [11]; 250 g/ha): 9; herbicidal effect (0-9 scale) GLXMA (Glycine max [11]; 1000 g/ha): 9; herbicidal effect (0-9 scale) ECHCG (Echinochloa crus-galli [12]; 250 g/ha): 9; herbicidal effect (0-9 scale) ECHCG (Echinochloa crus-galli [12]; 1000 g/ha): 9; herbicidal effect (0-9 scale) SETVI (Setaria viridis [13]; 250 g/ha): 9; herbicidal effect (0-9 scale) SETVI (Setaria viridis [13]; 1000 g/ha): 9; herbicidal effect (0-9 scale) IPOHE (Ipomoea hederacea [14]; 250 g/ha): 9; herbicidal effect (0-9 scale) IPOHE (Ipomoea hederacea [14]; 1000 g/ha): 9; herbicidal effect (0-9 scale) ALOMY (Alopecurus myosuroides [15]; 250 g/ha): 9; herbicidal effect (0-9 scale) ALOMY (Alopecurus myosuroides [15]; 1000 g/ha): 9; herbicidal effect (0-9 scale) TRZAW (Triticum aestivum [16]; 250 g/ha): 6; herbicidal effect (0-9 scale) TRZAW (Triticum aestivum [16]; 1000 g/ha): 8; herbicidal effect (0-9 scale) ECHCG (Echinochloa crus-galli [17]; 250 g/ha): 9; herbicidal effect (0-9 scale) ECHCG (Echinochloa crus-galli [17]; 1000 g/ha): 9; herbicidal effect (0-9 scale) ZEAMX (Zea mays [18]; 250 g/ha): 9; herbicidal effect (0-9 scale) ZEAMX (Zea mays [18]; 1000 g/ha): 9; herbicidal effect (0-9 scale) MATIN (Matricaria inodora [19]; 250 g/ha): 9; herbicidal effect (0-9 scale) MATIN (Matricaria inodora [19]; 1000 g/ha): 9; herbicidal effect (0-9 scale) GLXMA (Glycine max [20]; 250 g/ha): 6; herbicidal effect (0-9 scale) GLXMA (Glycine max [20]; 1000 g/ha): 6; herbicidal effect (0-9 scale) ALOMY (Alopecurus myosuroides [21]; 250 g/ha): 9; herbicidal effect (0-9 scale) ALOMY (Alopecurus myosuroides [21]; 1000 g/ha): 9; herbicidal effect (0-9 scale) STEME (Stellaria media [22]; 250 g/ha): 9; herbicidal effect (0-9 scale) STEME (Stellaria media [22]; 1000 g/ha): 9; herbicidal effect (0-9 scale) STEME (Stellaria media [23]; 250 g/ha): 9; herbicidal effect (0-9 scale) STEME (Stellaria media [23]; 1000 g/ha): 9; herbicidal effect (0-9 scale) ABUTH (Abutilon theophrasti [24]; 250 g/ha): 9; herbicidal effect (0-9 scale) ABUTH (Abutilon theophrasti [24]; 1000 g/ha): 9
